Reference: patent US11547681B2, “N-acylethanolamide derivatives and uses thereof” (ELIEM THERAPEUTICS, INC., priority 2016, dated 2023)

Assay: in vitro
Details: for Concentration (μM) of analyte PEA, 0 min / Concentration (μM) of analyte PEA, 10 min / Concentration (μM) of analyte PEA, 20 min / Concentration (μM) of analyte PEA, 30 min / Concentration (μM) of analyte PEA, 60 min / % Remaining of Initial (n = 1), 0 min / % Remaining of Initial (n = 1), 10 min / % Remaining of Initial (n = 1), 20 min / % Remaining of Initial (n = 1), 30 min / % Remaining of Initial (n = 1), 60 min / Measured concentration of PEA (analyte) / % Remaining of Initial: 1 μM
Summary of the method: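 Read-out: percent of parent left relative to time zero, measured by electrospray LC-MS/MS against matrix-matched standards. Both the dosed prodrug and PEA were quantified. Compound ran at 1 µM final with cofactor-initiated S9 incubation at 37 °C, sampled over 60 min.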

[1] = male, Beagle, dog, s9, Half-life (min)
[2] = male, Sprague-Dawley, rat, 0 min
[3] = male, Sprague-Dawley, rat, 10 min
[4] = male, Sprague-Dawley, rat, 20 min
[5] = male, Sprague-Dawley, rat, 30 min
[6] = male, Sprague-Dawley, rat, 60 min
[7] = male, Sprague-Dawley, rat, s9, 0 h
[8] = male, Sprague-Dawley, rat, s9, 10 min
[9] = male, Sprague-Dawley, rat, s9, 20 min
[10] = male, Sprague-Dawley, rat, s9, 0.5 h
[11] = male, Sprague-Dawley, rat, s9, 1 h

SMILES: CCCCCCCCCCCCCCCC(=O)NCCOC(=O)CCC(=O)OC[C@H]1O[C@@](CO)(O[C@H]2O[C@H](CO)[C@@H](O)[C@H](O)[C@H]2O)[C@@H](O)[C@@H]1O [Compound I-7]
- Concentration (μM) of analyte PEA, 0 min (both, human, 0 min): 0.20 µM
- Concentration (μM) of analyte PEA, 10 min (both, human, 10 min): 0.32 µM
- Concentration (μM) of analyte PEA, 20 min (both, human, 20 min): 0.17 µM
- Concentration (μM) of analyte PEA, 30 min (both, human, 30 min): 0.13 µM
- Concentration (μM) of analyte PEA, 60 min (both, human, 60 min): 0.042 µM
- % Remaining of Initial (n = 1), 0 min (both, human, s9, 0 h): 100%
- % Remaining of Initial (n = 1), 10 min (both, human, s9, 10 min): 1.9%
- % Remaining of Initial (n = 1), 20 min (both, human, s9, 20 min): <1.0%
- % Remaining of Initial (n = 1), 30 min (both, human, s9, 0.5 h): <1.0%
- % Remaining of Initial (n = 1), 60 min (both, human, s9, 1 h): <1.0%
- Concentration (μM) of analyte PEA, 0 min (male, Beagle, dog, 0 min): 0.21 µM
- Concentration (μM) of analyte PEA, 10 min (male, Beagle, dog, 10 min): 0.16 µM
- Concentration (μM) of analyte PEA, 20 min (male, Beagle, dog, 20 min): 0.15 µM
- Concentration (μM) of analyte PEA, 30 min (male, Beagle, dog, 30 min): 0.12 µM
- Concentration (μM) of analyte PEA, 60 min (male, Beagle, dog, 60 min): 0.049 µM
- % Remaining of Initial (n = 1), 0 min (male, Beagle, dog, s9, 0 h): 100%
- % Remaining of Initial (n = 1), 10 min (male, Beagle, dog, s9, 10 min): <1.0%
- % Remaining of Initial (n = 1), 20 min (male, Beagle, dog, s9, 20 min): <1.0%
- % Remaining of Initial (n = 1), 30 min (male, Beagle, dog, s9, 0.5 h): <1.0%
- % Remaining of Initial (n = 1), 60 min (male, Beagle, dog, s9, 1 h): <1.0%
- half-life at 1 μM [1]: < 1 min
- Concentration (μM) of analyte PEA, 0 min (male, CD-1, mouse, 0 min): 0.22 µM
- Concentration (μM) of analyte PEA, 10 min (male, CD-1, mouse, 10 min): 0.22 µM
- Concentration (μM) of analyte PEA, 20 min (male, CD-1, mouse, 20 min): 0.14 µM
- Concentration (μM) of analyte PEA, 30 min (male, CD-1, mouse, 30 min): 0.084 µM
- Concentration (μM) of analyte PEA, 60 min (male, CD-1, mouse, 60 min): 0.020 µM
- % Remaining of Initial (n = 1), 0 min (male, CD-1, mouse, s9, 0 h): 100%
- % Remaining of Initial (n = 1), 10 min (male, CD-1, mouse, s9, 10 min): 1.6%
- % Remaining of Initial (n = 1), 20 min (male, CD-1, mouse, s9, 20 min): <1.0%
- % Remaining of Initial (n = 1), 30 min (male, CD-1, mouse, s9, 0.5 h): <1.0%
- % Remaining of Initial (n = 1), 60 min (male, CD-1, mouse, s9, 1 h): <1.0%
- Concentration (μM) of analyte PEA, 0 min [2]: 0.045 µM
- Concentration (μM) of analyte PEA, 10 min [3]: 0.15 µM
- Concentration (μM) of analyte PEA, 20 min [4]: 0.16 µM
- Concentration (μM) of analyte PEA, 30 min [5]: 0.12 µM
- Concentration (μM) of analyte PEA, 60 min [6]: 0.039 µM
- % Remaining of Initial (n = 1), 0 min [7]: 100%
- % Remaining of Initial (n = 1), 10 min [8]: 43%
- % Remaining of Initial (n = 1), 20 min [9]: 22%
- % Remaining of Initial (n = 1), 30 min [10]: 11%
- % Remaining of Initial (n = 1), 60 min [11]: 1.4%

SMILES: CCCCCCCCCCCCCCCC(=O)NCCOC(=O)CCC(=O)OC(CO)CO [Compound I-8]
- Measured concentration of PEA (analyte) (both, human, 0 min): 0.19 µM
- Measured concentration of PEA (analyte) (both, human, 10 min): 0.57 µM
- Measured concentration of PEA (analyte) (both, human, 20 min): 0.47 µM
- Measured concentration of PEA (analyte) (both, human, 30 min): 0.41 µM
- Measured concentration of PEA (analyte) (both, human, 60 min): 0.28 µM
- % Remaining of Initial (both, human, s9, 0 h): 100%
- % Remaining of Initial (both, human, s9, 10 min): 1.4%
- % Remaining of Initial (both, human, s9, 20 min): <1.0%
- % Remaining of Initial (both, human, s9, 0.5 h): <1.0%
- % Remaining of Initial (both, human, s9, 1 h): <1.0%
- half-life at 1 μM (both, human, s9, Half-life): < 10 min
- Measured concentration of PEA (analyte) (male, Beagle, dog, 0 min): 0.13 µM
- Measured concentration of PEA (analyte) (male, Beagle, dog, 10 min): 0.33 µM
- Measured concentration of PEA (analyte) (male, Beagle, dog, 20 min): 0.34 µM
- Measured concentration of PEA (analyte) (male, Beagle, dog, 30 min): 0.33 µM
- Measured concentration of PEA (analyte) (male, Beagle, dog, 60 min): 0.20 µM
- % Remaining of Initial (male, Beagle, dog, s9, 0 h): 100%
- % Remaining of Initial (male, Beagle, dog, s9, 10 min): 32%
- % Remaining of Initial (male, Beagle, dog, s9, 20 min): 11%
- % Remaining of Initial (male, Beagle, dog, s9, 0.5 h): 3.5%
- % Remaining of Initial (male, Beagle, dog, s9, 1 h): <1.0%
- half-life at 1 μM (male, Beagle, dog, s9, Half-life): < 10 min
- Measured concentration of PEA (analyte) (male, CD-1, mouse, 0 min): 0.29 µM
- Measured concentration of PEA (analyte) (male, CD-1, mouse, 10 min): 0.50 µM
- Measured concentration of PEA (analyte) (male, CD-1, mouse, 20 min): 0.44 µM
- Measured concentration of PEA (analyte) (male, CD-1, mouse, 30 min): 0.38 µM
- Measured concentration of PEA (analyte) (male, CD-1, mouse, 60 min): 0.37 µM
- % Remaining of Initial (male, CD-1, mouse, s9, 0 h): 100%
- % Remaining of Initial (male, CD-1, mouse, s9, 10 min): 4.6%
- % Remaining of Initial (male, CD-1, mouse, s9, 20 min): 1.0%
- % Remaining of Initial (male, CD-1, mouse, s9, 0.5 h): <1.0%
- % Remaining of Initial (male, CD-1, mouse, s9, 1 h): <1.0%
- half-life at 1 μM (male, CD-1, mouse, s9, Half-life): < 10 min
- half-life at 1 μM (male, CD-1, mouse, s9, Half-life, calculated value in parentheses): 2.3 min
- Measured concentration of PEA (analyte) [2]: 0.069 µM
- Measured concentration of PEA (analyte) [3]: 0.17 µM
- Measured concentration of PEA (analyte) [4]: 0.092 µM
- Measured concentration of PEA (analyte) [5]: 0.061 µM
- Measured concentration of PEA (analyte) [6]: 0.013 µM
- % Remaining of Initial [7]: 100%
- % Remaining of Initial [8]: 17%
- % Remaining of Initial [9]: 2.8%
- % Remaining of Initial [10]: <1.0%
- % Remaining of Initial [11]: <1.0%
- half-life at 1 μM (male, Sprague-Dawley, rat, s9, Half-life): < 10 min
- half-life at 1 μM (male, Sprague-Dawley, rat, s9, Half-life, calculated value in parentheses): 3.9 min

SMILES: CCCCCCCCCCCCCCCC(=O)NCCOC(=O)CCC(=O)OCC(O)CO (stereo not shown) [Compound I-9]
- Concentration (μM) of analyte PEA, 0 min (both, human, 0 min): 0.35 µM
- Concentration (μM) of analyte PEA, 10 min (both, human, 10 min): 0.30 µM
- Concentration (μM) of analyte PEA, 20 min (both, human, 20 min): 0.18 µM
- Concentration (μM) of analyte PEA, 30 min (both, human, 30 min): 0.088 µM
- Concentration (μM) of analyte PEA, 60 min (both, human, 60 min): 0.028 µM
- % Remaining of Initial (n = 1), 0 min (both, human, s9, 0 h): 100%
- % Remaining of Initial (n = 1), 10 min (both, human, s9, 10 min): <1.0%
- % Remaining of Initial (n = 1), 20 min (both, human, s9, 20 min): <1.0%
- % Remaining of Initial (n = 1), 30 min (both, human, s9, 0.5 h): <1.0%
- % Remaining of Initial (n = 1), 60 min (both, human, s9, 1 h): <1.0%
- half-life at 1 μM (both, human, s9, Half-life (min)): < 1 min
- Concentration (μM) of analyte PEA, 0 min (male, Beagle, dog, 0 min): 0.32 µM
- Concentration (μM) of analyte PEA, 10 min (male, Beagle, dog, 10 min): 0.29 µM
- Concentration (μM) of analyte PEA, 20 min (male, Beagle, dog, 20 min): 0.21 µM
- Concentration (μM) of analyte PEA, 30 min (male, Beagle, dog, 30 min): 0.18 µM
- Concentration (μM) of analyte PEA, 60 min (male, Beagle, dog, 60 min): 0.078 µM
- % Remaining of Initial (n = 1), 0 min (male, Beagle, dog, s9, 0 h): 100%
- % Remaining of Initial (n = 1), 10 min (male, Beagle, dog, s9, 10 min): <1.0%
- % Remaining of Initial (n = 1), 20 min (male, Beagle, dog, s9, 20 min): <1.0%
- % Remaining of Initial (n = 1), 30 min (male, Beagle, dog, s9, 0.5 h): <1.0%
- % Remaining of Initial (n = 1), 60 min (male, Beagle, dog, s9, 1 h): <1.0%
- half-life at 1 μM [1]: < 1 min
- Concentration (μM) of analyte PEA, 0 min (male, CD-1, mouse, 0 min): 0.52 µM
- Concentration (μM) of analyte PEA, 10 min (male, CD-1, mouse, 10 min): 0.23 µM
- Concentration (μM) of analyte PEA, 20 min (male, CD-1, mouse, 20 min): 0.13 µM
- Concentration (μM) of analyte PEA, 30 min (male, CD-1, mouse, 30 min): 0.077 µM
- Concentration (μM) of analyte PEA, 60 min (male, CD-1, mouse, 60 min): 0.022 µM
- % Remaining of Initial (n = 1), 0 min (male, CD-1, mouse, s9, 0 h): 100%
- % Remaining of Initial (n = 1), 10 min (male, CD-1, mouse, s9, 10 min): <1.0%
- % Remaining of Initial (n = 1), 20 min (male, CD-1, mouse, s9, 20 min): <1.0%
- % Remaining of Initial (n = 1), 30 min (male, CD-1, mouse, s9, 0.5 h): <1.0%
- % Remaining of Initial (n = 1), 60 min (male, CD-1, mouse, s9, 1 h): <1.0%
- half-life at 1 μM (male, CD-1, mouse, s9, Half-life (min)): < 1 min
- Concentration (μM) of analyte PEA, 0 min [2]: 0.20 µM
- Concentration (μM) of analyte PEA, 10 min [3]: 0.31 µM
- Concentration (μM) of analyte PEA, 20 min [4]: 0.18 µM
- Concentration (μM) of analyte PEA, 30 min [5]: 0.11 µM
- Concentration (μM) of analyte PEA, 60 min [6]: 0.029 µM
- % Remaining of Initial (n = 1), 0 min [7]: 100%
- % Remaining of Initial (n = 1), 10 min [8]: 13%
- % Remaining of Initial (n = 1), 20 min [9]: 2.1%
- % Remaining of Initial (n = 1), 30 min [10]: <1.0%
- % Remaining of Initial (n = 1), 60 min [11]: <1.0%
